Two compounds from paper PMC10344917, “Affinity and cooperativity modulate ternary complex formation to drive targeted protein degradation” (Nature Communications, 2023) can be followed below.

Data set [1] concerns the target T1, BRD4 (Homo sapiens, UniProt O60885).
T1 construct: endogenous in cells; host or cells: A375
Put plainly: BRD4 degradation time course in A375 cells (MSD). In kind it is cell-based. To be noted: single concentration at or near maximal activity. The text has this:
To measure the rate of protein degradation, we treated A375 cells with a single concentration of each PROTAC and measured the decrease in target abundance over time as shown in Figs. 4b and5b.
(§1) MSD electrochemiluminescence signals were subtracted by the average background signal from wells with lysis buffer alone. Normalized MSD values (POC) for individual compound treated wells were acquired by dividing background-subtracted assay signal by signal from vehicle control wells (cells + 0.1% DMSO) and multiplying by 100. This POC data was graphed using a nonlinear regression curve fit xy analysis and a log(inhibitor) vs response —variable slope (four parameter) model for dose response curves (Graphpad Prism 9, San Diego, CA, USA). To calculate area under the curve, all points on the curve were connected and vertical lines were drawn from each point down to y = 0, generating a series of trapezoids. The area of each trapezoid was determined using the equation A = (1/2)(h)(b1 + b2), where h = 1 (distance between points), b1 = POC of the first point and b2 = POC of the second point. The sum of all trapezoids provides an approximate area under the curve (AUC). For half-life (t1/2) determination in time course studies, a one-phase decay model was used for curve fitting and the time at which the curve crossed 50 POC was determined through interpolation (Graphpad Prism 9, San Diego, CA, USA).

Data set [2] concerns the target T1, BRD4. In words: BRD4 degradation, MSD assay, dose response. In kind it is cell-based. Details: AUC (area under the dose-response curve): unit not given beside the values. Conditions: A375 cells. The protocol:
(§2) A375 cells were treated with SMARCA2 or BRD4 degraders for 2 h (4 h for BRD4) and generated lysates. SMARCA2 or BRD4 protein was measured with a variation of a sandwich ELISA that was assembled from commercially available antibodies as well as reagents and instrumentation procured from Meso Scale Discovery (MSD). Degradation parameter, DC50, is not suitable for PROTACs that induce partial/incomplete DR curves at a fixed time point; maximum drop in target protein level (Dmax) >>0. Conversely, the area under the curve (AUC) can be calculated as a degradation activity parameter for any DR curve, and it encompasses both the degradation potency (i.e., DC50) and efficacy (i.e., Dmax) of PROTACs.
(§3) A 1:3 compound dose-response titration was diluted in growth media (1:20), added to appropriate wells of a cell culture plate (1:10) and then assay plates were incubated at 37 °C, 5% CO2.
(§4) Plates were washed with 300 µL per well MSD wash buffer (MSD R61TX-1) between each step. Following the last incubation, plates were washed with MSD wash buffer then 150 µL of MSD read buffer (MSD R92TC-2) was added to each well. Plates were immediately read on a MSD plate reader (MSD Sector Imager 6000).
as §1

The target in data set [3] is T2, BRD4^BD2 (Homo sapiens, UniProt O60885).
T2 construct: ternary complex formation with both bromodomains, BRD4^BD1 and BRD4^BD2, independently; made in house
Put plainly: SPR binary binding of PROTAC to BRD4^BD2-functionalized surface. Conditions: 1:1 Langmuir binding model, SD N=2.

In data set [4] the target is T3, VBC / BRD4^BD2 ternary complex (Homo sapiens, UniProt O60885+P40337).
T3 construct: VHL (54-213), ElonginB (17-112) ElonginC (1-104); ternary complex formation with both bromodomains, BRD4^BD1 and BRD4^BD2, independently; His6 (N); made in house
Put plainly: SPR ternary complex binding, VBC surface with preformed PROTAC/BRD4 BD2 complex. The protocol: (§5) SPR experiments were performed on a Biacore 8 K or T200 instrument (Cytiva). […] The running buffer during immobilization was PBS with 0.005% P20. Either high-density (3000-4000 RU) or low-density (300-400 RU) VBC-functionalized surfaces were created, followed by equilibration in the running buffer for 3 h.
(§6) PROTACs (10 mM in 100% DMSO) were initially prepared at 200 nM in a running buffer (20 mM Tris pH 8.0, 250 mM NaCl, 1 mM TCEP, 0.01% P20, 0.2 mg/ml BSA) with a concentration of 2% DMSO. This solution was mixed at 1:1 ratio with a solution of 5 μM of the SMARCA2 or BRD4 bromodomain protein in the running buffer. […] For ternary experiments, solutions were injected sequentially in single-cycle kinetic format without regeneration (contact time 60 s, flow rate 80 μL/min, dissociation time 300 s) using a stabilization period of 60 s and syringe wash (50% DMSO) between injections onto a low-density VBC-functionalized surface.
(§7) Raw sensorgrams were processed by performing double reference subtraction, solvent correction, and analysis was done using Biacore Insight Evaluation Software. Kinetic analysis was performed by fitting data to a 1:1 Langmuir interaction model and a steady-state affinity model was used to evaluate equilibrium binding affinity.

The target of data set [5] is T4, VBC / BRD4^BD1 ternary complex (Homo sapiens, UniProt O60885+P40337).
T4 construct: VHL (54-213), ElonginB (17-112) ElonginC (1-104); BRD4 (44-168); His6 (N, cleaved yes); made in house
In words: SPR ternary complex binding, VBC surface with preformed PROTAC/BRD4 BD1 complex. The protocol: as §5, §6, §7

Data set [6] addresses T5, BRD4-NanoLuc (Homo sapiens, UniProt O60885).
T5 construct: expressed in transfected cells; host or cells: HEK293
Put plainly: NanoBRET target engagement assay, live and permeabilized HEK293 cells (BRD4). The format is cell-based. To be noted: for IC50: BRD4 NanoBRET TE. The protocol:
We employed a NanoBRET-based target engagement (TE) assay as reported earlier^7 for evaluating PROTACs relative permeability. In summary, live and permeabilized HEK293 cells with SMARCA2 or BRD4-NanoLuc were used for measuring IC50 values of different PROTACs. The relative shift in the IC50 was evaluated as relative binding affinity (RBA) by taking the ratio of IC50 values of live and permeabilized cells. Availability index (AI), which is a surrogate for permeability can be calculated by taking a ratio of RBA of compounds to permeable benchmark molecules.
Relative Binding Affinity (RBA) = Live-cell TE IC50 / Permeabilized-cell TE IC50
Availability Index (AI) = RBAtest cmpd / RBApermeable benchmark
Availability Index (AI) greater than one is indicative of reduced permeability compared to the benchmark.
For orientation: BRET reads energy transfer from a luciferase to a nearby fluorophore.

The target of data set [7] is T6, VHL/EloB/EloC (VBC) (Homo sapiens, UniProt P40337).
T6 construct: VHL (54-213), ElonginB (17-112) ElonginC (1-104); made in house
Put plainly: SPR binary binding of PROTAC to VBC-functionalized surface. The protocol:
as §5
PROTACs (10 mM stocks in 100% DMSO) were diluted to 400 nM in a running buffer (20 mM Tris pH 7.5, 200 mM NaCl, 0.02% P20). This stock solution was then serially diluted in the running buffer containing final 2% DMSO. […] For SMARCA2 analysis, biotinylated proteins were introduced on a Series S streptavidin (SA) sensor chip at high-density (3000-4000 RU).
as §7

Data set [8] deals with T7, SMARCA2^BD (Homo sapiens, UniProt P51531).
T7 construct: SMARCA2^BD 1373–1511 ∆1400–1417; made in house
T7 sequence (P51531 1373-1493 isoform P51531-2): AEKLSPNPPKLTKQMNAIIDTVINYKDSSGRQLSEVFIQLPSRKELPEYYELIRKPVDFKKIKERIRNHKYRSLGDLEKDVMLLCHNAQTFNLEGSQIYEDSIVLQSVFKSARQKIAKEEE
Put plainly: SPR binary binding of PROTAC to SMARCA2-functionalized surface. Conditions: 1:1 Langmuir binding model, SEM N=3 or SD N=2, read-out: KTP (binary affinity PROTAC / SMARCA2). The protocol:
PROTACs (10 mM stocks in 100% DMSO) were diluted to 400 nM in a running buffer (20 mM Tris pH 7.5, 200 mM NaCl, 0.02% P20). This stock solution was then serially diluted in the running buffer containing final 2% DMSO. Solutions were injected in multi-cycle kinetic format without regeneration (contact time 60 s, flow rate 80 μL/min, dissociation time 120 s) using a stabilization period of 30 s and syringe wash (50% DMSO) between injections onto a high-density VBC-functionalized surface. For SMARCA2 analysis, biotinylated proteins were introduced on a Series S streptavidin (SA) sensor chip at high-density (3000-4000 RU).
as §7

Data set [9] deals with T8, SMARCA2 (Homo sapiens, UniProt P51531).
T8 construct: endogenous in cells; host or cells: A375
T8 sequence (P51531 whole entry): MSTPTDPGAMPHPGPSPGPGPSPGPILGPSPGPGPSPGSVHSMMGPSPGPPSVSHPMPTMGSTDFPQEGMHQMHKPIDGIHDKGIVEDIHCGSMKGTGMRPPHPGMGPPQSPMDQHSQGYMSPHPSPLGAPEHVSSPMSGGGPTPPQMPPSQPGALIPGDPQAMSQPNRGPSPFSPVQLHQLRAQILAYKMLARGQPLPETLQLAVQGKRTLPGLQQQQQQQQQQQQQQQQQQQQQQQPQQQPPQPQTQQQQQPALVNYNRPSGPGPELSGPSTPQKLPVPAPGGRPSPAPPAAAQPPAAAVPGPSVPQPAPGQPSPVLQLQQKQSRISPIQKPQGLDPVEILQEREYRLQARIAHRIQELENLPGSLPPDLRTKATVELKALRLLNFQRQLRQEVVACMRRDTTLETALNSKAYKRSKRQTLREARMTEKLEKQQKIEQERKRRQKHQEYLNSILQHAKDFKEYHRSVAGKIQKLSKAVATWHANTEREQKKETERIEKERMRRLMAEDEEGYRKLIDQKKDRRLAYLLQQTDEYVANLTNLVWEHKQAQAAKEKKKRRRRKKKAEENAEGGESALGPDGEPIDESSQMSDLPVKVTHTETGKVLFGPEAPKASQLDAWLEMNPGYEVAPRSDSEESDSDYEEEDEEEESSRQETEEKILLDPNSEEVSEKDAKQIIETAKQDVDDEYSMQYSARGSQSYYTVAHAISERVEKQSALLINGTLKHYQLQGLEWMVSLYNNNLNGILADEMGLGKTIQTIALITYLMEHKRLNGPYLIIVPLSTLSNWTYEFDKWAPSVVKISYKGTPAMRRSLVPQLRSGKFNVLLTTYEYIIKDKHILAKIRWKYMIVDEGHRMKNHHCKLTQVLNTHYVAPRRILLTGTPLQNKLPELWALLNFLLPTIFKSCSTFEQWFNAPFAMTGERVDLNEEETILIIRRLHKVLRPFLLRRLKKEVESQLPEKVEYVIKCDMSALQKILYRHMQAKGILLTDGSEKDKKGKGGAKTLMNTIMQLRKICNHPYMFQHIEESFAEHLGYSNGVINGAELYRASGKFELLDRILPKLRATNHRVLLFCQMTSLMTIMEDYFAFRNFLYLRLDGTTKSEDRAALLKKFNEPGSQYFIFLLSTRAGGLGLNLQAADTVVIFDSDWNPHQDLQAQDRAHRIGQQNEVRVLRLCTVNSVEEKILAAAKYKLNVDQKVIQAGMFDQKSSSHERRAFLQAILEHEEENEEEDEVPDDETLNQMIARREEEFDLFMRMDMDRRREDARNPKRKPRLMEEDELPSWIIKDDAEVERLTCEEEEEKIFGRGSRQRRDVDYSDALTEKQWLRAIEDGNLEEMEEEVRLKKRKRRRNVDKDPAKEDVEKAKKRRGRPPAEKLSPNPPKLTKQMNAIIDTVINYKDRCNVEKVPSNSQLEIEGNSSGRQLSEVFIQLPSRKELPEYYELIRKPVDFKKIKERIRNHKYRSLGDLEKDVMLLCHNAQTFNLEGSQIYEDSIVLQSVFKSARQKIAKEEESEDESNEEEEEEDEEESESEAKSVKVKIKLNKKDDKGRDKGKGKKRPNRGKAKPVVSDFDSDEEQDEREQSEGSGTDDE
In words: SMARCA2 degradation, MSD assay, dose response. In kind it is cell-based. The arrangement: key to AUC (area under the dose-response curve): sum of trapezoids of POC vs dose points, h = 1. The protocol: as §2, §3, §4, §1

Data set [10] has as its target T8, SMARCA2. Put plainly: SMARCA2 degradation time course in A375 cells (MSD). The format is cell-based. To be noted: single concentration at or near maximal activity. The source says: This characteristic has been described as cooperativity (α > 1) and likely results from favorable PPIs present in the ternary complex. […] To measure the rate of protein degradation, we treated A375 cells with a single concentration of each PROTAC and measured the decrease in target abundance over time as shown in Figs. 4b and5b.
MSD electrochemiluminescence signals were subtracted by the average background signal from wells with lysis buffer alone. Normalized MSD values (POC) for individual compound treated wells were acquired by dividing background-subtracted assay signal by signal from vehicle control wells (cells + 0.1% DMSO) and multiplying by 100. This POC data was graphed using a nonlinear regression curve fit xy analysis and a log(inhibitor) vs response —variable slope (four parameter) model for dose response curves (Graphpad Prism 9, San Diego, CA, USA). To calculate area under the curve, all points on the curve were connected and vertical lines were drawn from each point down to y = 0, generating a series of trapezoids. The area of each trapezoid was determined using the equation A = (1/2)(h)(b1 + b2), where h = 1 (distance between points), b1 = POC of the first point and b2 = POC of the second point. The sum of all trapezoids provides an approximate area under the curve (AUC). For half-life (t1/2) determination in time course studies, a one-phase decay model was used for curve fitting and the time at which the curve crossed 50 POC was determined through interpolation (Graphpad Prism 9, San Diego, CA, USA). Additionally initial rate of degradation was determined by multiplying 100 with rate constant (τ = 0.693/t1/2).

For data set [11], the target named is T9, VBC / SMARCA2^BD ternary complex (Homo sapiens, UniProt P40337+P51531).
T9 construct: VHL (54-213), ElonginB (17-112) ElonginC (1-104); SMARCA2^BD 1373–1511 ∆1400–1417; His6 (N, cleaved yes); made in house
Put plainly: SPR ternary complex binding, VBC surface with preformed PROTAC/SMARCA2 bromodomain complex. The protocol:
as §5
PROTACs (10 mM in 100% DMSO) were initially prepared at 200 nM in a running buffer (20 mM Tris pH 8.0, 250 mM NaCl, 1 mM TCEP, 0.01% P20, 0.2 mg/ml BSA) with a concentration of 2% DMSO. This solution was mixed at 1:1 ratio with a solution of 5 μM of the SMARCA2 or BRD4 bromodomain protein in the running buffer. This complex was then serially diluted in the running buffer containing 2.5 μM SMARCA2 or BRD4 and 2% DMSO (5-point five-fold serial dilution). For ternary experiments, solutions were injected sequentially in single-cycle kinetic format without regeneration (contact time 60 s, flow rate 80 μL/min, dissociation time 300 s) using a stabilization period of 60 s and syringe wash (50% DMSO) between injections onto a low-density VBC-functionalized surface.
as §7

Setting [12] is: SPR, VHL, PROTAC, error SEM, N = 3, read-out: KLPT (ternary complex binding affinity).

Where two headings read alike, the source gives them in different places.

The Dmax is the greatest extent of degradation seen. As a reminder, the DC50 is the concentration giving 50% degradation. `Cc1ncsc1-c1ccc(CNC(=O)[C@@H]2C[C@@H](O)CN2C(=O)[C@@H](NC(=O)COCCOCc2cn(CCNC(=O)C[C@@H]3N=C(c4ccc(Cl)cc4)c4c(sc(C)c4C)-n4c(C)nnc43)nn2)C(C)(C)C)cc1` [Compound 13, (2S,4R)-1-((S)-2-(2-(2-((1-(2-(2-((S)-4-(4-chlorophenyl)-2,3,9-trimethyl-6H-thieno[3,2-f][1,2,4]triazolo[4,3-a][1,4]diazepin-6-yl)acetamido)ethyl)-1H-1,2,3-triazol-4-yl)methoxy)ethoxy)acetamido)-3,3-dimethylbutanoyl)-4-hydroxy-N-(4-(4-methylthiazol-5-yl)benzyl)pyrrolidine-2-carboxamide]: the “Initial Degradation Rate” value in data set [1] is given as 0.76 %/min. The Dmax in [2] (A-375, BRD4 degraded, MSD assay, 4 h timepoint) came to 78%. Besides, the “AUC (area under the dose-response curve)” value in data set [2] (BRD4 MSD assay, 4 h) turned out to be 309. In addition, half-maximal degradation in data set [2] (BRD4 degradation, MSD assay, 4 h timepoint) (DC50) was put at 726 nM. The Kd in data set [3] was determined as 11.7 ± 0.9 nM; in data set [4] (setting [12]) it was 10 ± 2 nM; in data set [5] (setting [12]), 29 ± 3 nM; in [7] it was 17 ± 2 nM. In addition, the “α (cooperativity, KLP/KLPT)” value in data set [4] was determined as 1.7; in data set [5] it was 0.6. Besides, the “Availability Index” value in [6] (RBA test cmpd / RBA of JQ1 benchmark, surrogate for permeability) was 73.87. In addition, the IC50 was 7270 nM in [6] (live HEK293 cells, read-out: Live-Cell TE) and 100 nM in data set [6] (permeabilized HEK293 cells, read-out: Permeabilized-Cell TE).

As for `Cc1ncsc1-c1ccc([C@H](C)NC(=O)[C@@H]2C[C@@H](O)CN2C(=O)[C@@H](NC(=O)c2cccc(N3CCN(c4nc(-c5ccccc5O)nnc4N)CC3)n2)C(C)(C)C)cc1` [Compound 9, 6-(4-(6-Amino-3-(2-hydroxyphenyl)-1,2,4-triazin-5-yl)piperazin-1-yl)-N-((S)-1-((2S,4R)-4-hydroxy-2-(((S)-1-(4-(4-methylthiazol-5-yl)phenyl)ethyl)carbamoyl)pyrrolidin-1-yl)-3,3-dimethyl-1-oxobutan-2-yl)picolinamide], the Kd was 294 ± 33 nM in [8]; 25 ± 4 nM in data set [7] (SPR, error SEM, N = 3, read-out: KLP (binary binding affinity between E3 ligase VHL and PROTAC)); 77 ± 8 nM in data set [11] (setting [12]). In [9] (2 h MSD assay), the SMARCA2 degradation is on record as ~ 30%. The compound also came in with a Dmax in data set [9] (A-375, SMARCA2 degraded, MSD assay, A375 cells, 2 h timepoint) of 74%. The “AUC (area under the dose-response curve)” value in data set [9] (SMARCA2 MSD assay, A375 cells, 2 h) was 85. In [9] (SMARCA2 degradation, MSD assay, A375 cells, 2 h timepoint), this compound returned a DC50 of 372 nM. Further, the “Initial Degradation Rate” value in [10] was 0.98 %/min. Besides, the “α (cooperativity, KLP/KLPT)” value in data set [11] turned out to be 0.32.
